This is an account of results in ChEMBL document CHEMBL5291721, “A preclinical secondary pharmacology resource illuminates target-adverse drug reaction associations of marketed drugs” (Nat Commun, 2023).

One test has as its target T1, Adenosine receptor A3 (Homo sapiens, UniProt P0DMS8).
T1 sequence (P0DMS8 whole entry): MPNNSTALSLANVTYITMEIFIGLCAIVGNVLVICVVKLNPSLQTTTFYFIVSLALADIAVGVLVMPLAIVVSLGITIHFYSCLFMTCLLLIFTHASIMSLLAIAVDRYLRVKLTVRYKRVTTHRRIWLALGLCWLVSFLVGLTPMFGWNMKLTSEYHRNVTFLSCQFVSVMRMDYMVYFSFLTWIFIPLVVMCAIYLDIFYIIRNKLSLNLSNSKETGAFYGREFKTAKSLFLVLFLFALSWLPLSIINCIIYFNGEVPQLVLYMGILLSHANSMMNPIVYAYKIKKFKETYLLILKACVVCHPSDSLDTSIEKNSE

Test [1] addresses T2, Alpha-2A adrenergic receptor (Homo sapiens, UniProt P08913).
T2 sequence (P08913 whole entry): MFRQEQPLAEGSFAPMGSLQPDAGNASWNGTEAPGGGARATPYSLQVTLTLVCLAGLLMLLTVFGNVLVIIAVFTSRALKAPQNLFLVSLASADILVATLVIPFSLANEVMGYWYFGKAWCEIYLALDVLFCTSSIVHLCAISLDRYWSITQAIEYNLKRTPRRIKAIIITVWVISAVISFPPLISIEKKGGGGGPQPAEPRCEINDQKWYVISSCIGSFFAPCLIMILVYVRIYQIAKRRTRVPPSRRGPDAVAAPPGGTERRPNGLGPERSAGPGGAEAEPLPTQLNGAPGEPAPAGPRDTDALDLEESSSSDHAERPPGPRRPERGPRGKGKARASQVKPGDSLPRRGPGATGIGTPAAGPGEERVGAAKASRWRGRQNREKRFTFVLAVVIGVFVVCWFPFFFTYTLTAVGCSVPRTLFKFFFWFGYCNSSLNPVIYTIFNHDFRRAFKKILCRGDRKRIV
It counts as functional, cell-based.

The target in a further test is Histamine H3 receptor (Homo sapiens, UniProt Q9Y5N1).
Histamine H3 receptor, sequence (Q9Y5N1 whole entry): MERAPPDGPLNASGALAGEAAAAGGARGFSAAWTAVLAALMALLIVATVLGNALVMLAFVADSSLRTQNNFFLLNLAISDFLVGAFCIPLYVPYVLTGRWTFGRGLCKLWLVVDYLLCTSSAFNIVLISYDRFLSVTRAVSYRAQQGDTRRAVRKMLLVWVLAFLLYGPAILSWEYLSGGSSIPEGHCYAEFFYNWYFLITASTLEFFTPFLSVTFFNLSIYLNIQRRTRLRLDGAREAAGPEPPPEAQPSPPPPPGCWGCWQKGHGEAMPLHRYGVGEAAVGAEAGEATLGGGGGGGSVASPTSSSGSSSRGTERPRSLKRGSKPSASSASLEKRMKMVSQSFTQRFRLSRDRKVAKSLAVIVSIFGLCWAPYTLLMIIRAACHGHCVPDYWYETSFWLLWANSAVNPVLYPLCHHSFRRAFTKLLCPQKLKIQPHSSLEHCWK
The target of test [2] is T3, Muscarinic acetylcholine receptor M1 (Homo sapiens, UniProt P11229).
T3 sequence (P11229 whole entry): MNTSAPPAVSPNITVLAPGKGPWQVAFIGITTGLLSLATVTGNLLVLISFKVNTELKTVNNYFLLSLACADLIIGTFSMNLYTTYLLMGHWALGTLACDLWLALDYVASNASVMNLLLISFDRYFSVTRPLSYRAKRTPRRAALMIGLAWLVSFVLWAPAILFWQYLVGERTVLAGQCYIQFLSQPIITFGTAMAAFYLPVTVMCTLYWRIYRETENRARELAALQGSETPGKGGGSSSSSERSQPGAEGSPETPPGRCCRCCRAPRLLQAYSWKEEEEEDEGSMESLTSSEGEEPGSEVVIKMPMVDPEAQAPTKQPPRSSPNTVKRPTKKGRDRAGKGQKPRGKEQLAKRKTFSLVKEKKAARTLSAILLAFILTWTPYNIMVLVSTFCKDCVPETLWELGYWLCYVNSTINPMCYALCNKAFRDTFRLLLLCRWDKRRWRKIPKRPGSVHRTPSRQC
In kind it is functional, cell-based.

For test [3], the target named is T4, Cholecystokinin receptor type A (Homo sapiens, UniProt P32238).
T4 sequence (P32238 whole entry): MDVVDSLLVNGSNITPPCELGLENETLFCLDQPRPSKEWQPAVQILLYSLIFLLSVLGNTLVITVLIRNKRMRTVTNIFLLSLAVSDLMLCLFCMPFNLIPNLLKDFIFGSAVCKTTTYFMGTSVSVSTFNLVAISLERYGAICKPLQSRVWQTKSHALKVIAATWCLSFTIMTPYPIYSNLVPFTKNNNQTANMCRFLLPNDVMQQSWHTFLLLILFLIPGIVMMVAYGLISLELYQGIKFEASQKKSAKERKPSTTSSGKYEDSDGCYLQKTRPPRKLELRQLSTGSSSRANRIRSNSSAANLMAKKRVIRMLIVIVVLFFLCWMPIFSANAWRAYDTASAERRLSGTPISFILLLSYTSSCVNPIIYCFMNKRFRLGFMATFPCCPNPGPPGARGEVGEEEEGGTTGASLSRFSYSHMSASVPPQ

Test [4] concerns the target 5-hydroxytryptamine receptor 2B (Homo sapiens, UniProt P41595). It counts as functional, cell-based.
The target in test [5] is 3',5'-cyclic-AMP phosphodiesterase 4D (Homo sapiens, UniProt Q08499). It counts as functional.
3',5'-cyclic-AMP phosphodiesterase 4D, sequence (Q08499 whole entry): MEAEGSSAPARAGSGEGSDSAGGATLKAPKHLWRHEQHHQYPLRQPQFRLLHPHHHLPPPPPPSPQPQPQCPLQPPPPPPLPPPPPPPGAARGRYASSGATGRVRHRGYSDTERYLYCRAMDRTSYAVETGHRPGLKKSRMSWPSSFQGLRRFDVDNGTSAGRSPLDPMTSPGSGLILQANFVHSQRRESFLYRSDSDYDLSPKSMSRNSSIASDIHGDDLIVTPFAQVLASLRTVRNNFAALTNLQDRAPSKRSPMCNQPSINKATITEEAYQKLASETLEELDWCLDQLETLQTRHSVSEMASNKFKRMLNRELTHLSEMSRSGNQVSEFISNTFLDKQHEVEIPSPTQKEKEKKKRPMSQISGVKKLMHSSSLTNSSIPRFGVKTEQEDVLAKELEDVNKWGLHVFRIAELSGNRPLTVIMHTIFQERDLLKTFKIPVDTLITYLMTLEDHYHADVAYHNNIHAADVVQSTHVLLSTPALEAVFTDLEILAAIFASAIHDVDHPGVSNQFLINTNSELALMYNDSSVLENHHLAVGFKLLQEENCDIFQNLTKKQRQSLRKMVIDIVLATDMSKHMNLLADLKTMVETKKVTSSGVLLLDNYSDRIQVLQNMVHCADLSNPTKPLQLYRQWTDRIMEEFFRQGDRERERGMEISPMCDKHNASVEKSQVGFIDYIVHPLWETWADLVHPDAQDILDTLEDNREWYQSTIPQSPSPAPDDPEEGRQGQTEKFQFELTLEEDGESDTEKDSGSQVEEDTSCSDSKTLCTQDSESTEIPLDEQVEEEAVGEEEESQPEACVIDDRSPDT
Test [6] addresses T5, 5-hydroxytryptamine receptor 1A (Homo sapiens, UniProt P08908).
T5 sequence (P08908 whole entry): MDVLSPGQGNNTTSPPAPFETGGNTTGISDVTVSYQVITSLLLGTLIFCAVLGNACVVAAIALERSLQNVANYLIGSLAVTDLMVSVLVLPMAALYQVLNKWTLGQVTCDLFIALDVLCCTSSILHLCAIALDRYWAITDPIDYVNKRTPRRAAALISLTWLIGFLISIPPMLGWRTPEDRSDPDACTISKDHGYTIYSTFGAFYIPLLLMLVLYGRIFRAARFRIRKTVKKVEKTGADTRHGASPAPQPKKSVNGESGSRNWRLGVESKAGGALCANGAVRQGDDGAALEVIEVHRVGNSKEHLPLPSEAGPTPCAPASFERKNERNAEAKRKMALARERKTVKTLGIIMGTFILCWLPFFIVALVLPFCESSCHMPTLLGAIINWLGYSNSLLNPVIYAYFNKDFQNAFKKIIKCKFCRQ
It counts as functional, cell-based.

“And” between values parts separate entries of the source, which are not always exact repeats. Equal entries are not always repeated.
Note: assay procedure not described here.

5-hydroxytryptamine receptor 2B, sequence (P41595 whole entry): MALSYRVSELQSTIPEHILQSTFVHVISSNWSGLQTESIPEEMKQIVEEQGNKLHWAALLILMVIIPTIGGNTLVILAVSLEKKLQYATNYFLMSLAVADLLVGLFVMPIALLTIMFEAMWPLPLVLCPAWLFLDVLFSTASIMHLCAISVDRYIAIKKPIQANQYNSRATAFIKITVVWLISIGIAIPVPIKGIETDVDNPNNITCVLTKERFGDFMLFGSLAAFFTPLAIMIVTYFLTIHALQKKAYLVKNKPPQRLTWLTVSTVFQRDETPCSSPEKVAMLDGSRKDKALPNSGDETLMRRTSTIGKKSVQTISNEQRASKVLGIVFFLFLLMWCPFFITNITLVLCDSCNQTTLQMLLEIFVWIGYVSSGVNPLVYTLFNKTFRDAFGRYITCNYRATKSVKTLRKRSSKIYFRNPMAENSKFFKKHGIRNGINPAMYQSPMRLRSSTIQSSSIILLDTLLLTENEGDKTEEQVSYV

Consider `O=C(O)COc1ccc(C(=O)c2cccs2)c(Cl)c1Cl`, for which, at Adenosine receptor A3, the half-maximal activity concentration (AC50) is above 30 µM.

Regarding `CCCN(CCC)C(=O)Cc1c(-c2ccc(Cl)cc2)nc2ccc(Cl)cn12` [ALPIDEM], the concentration at half-maximal activity (AC50) in test [1] was above 30 µM; on Histamine H3 receptor, above 30 µM; in test [2], above 10 µM; in test [3] it was above 30 µM; in test [4], above 30 µM; in test [5], 13 µM.

As to `COc1c2ccoc2cc2oc(=O)ccc12` [BERGAPTEN], the concentration at half-maximal activity (AC50) at Adenosine receptor A3 was 23.8 µM; in test [2], above 30 µM.

For the compound `CNC(=O)Oc1cccc2ccccc12` [CARBARIL], the AC50 (at Adenosine receptor A3; in test [2]) was above 30 µM in each case.

Regarding `CC[C@H](C)C[C@H](C)CCCCCCCCC(=O)N[C@H]1C[C@@H](O)[C@@H](NCCN)NC(=O)[C@@H]2[C@@H](O)CCN2C(=O)[C@H]([C@H](O)CCN)NC(=O)[C@H]([C@H](O)[C@@H](O)c2ccc(O)cc2)NC(=O)[C@@H]2C[C@@H](O)CN2C(=O)[C@H]([C@@H](C)O)NC1=O` [CASPOFUNGIN], the half-maximal activity concentration (AC50) at Adenosine receptor A3 came out at 11.3 µM; in test [2], 15.7 µM.

The compound `CN(C)[C@@H]1C(O)=C(C(N)=O)C(=O)[C@@]2(O)C(O)=C3C(=O)c4c(O)ccc(Cl)c4[C@@](C)(O)[C@H]3C[C@@H]12` [CHLORTETRACYCLINE] registered an AC50 at Adenosine receptor A3 above 30 µM.

With `C[C@H]1O[C@@H](n2cc(F)c(=O)[nH]c2=O)[C@H](O)[C@@H]1O` [DOXIFLURIDINE], the AC50 at Adenosine receptor A3 is above 30 µM.

For the compound `CCc1nc(C(N)=O)c(Nc2ccc(N3CCC(N4CCN(C)CC4)CC3)c(OC)c2)nc1NC1CCOCC1` [GILTERITINIB], in test [2], the concentration at half-maximal activity (AC50) was above 0.3 µM.

For `CC(C)Cc1ccc(C(C)C(=O)O)cc1` (stereo not drawn) [IBUPROFEN], the concentration at half-maximal activity (AC50) was above 10 µM in test [1]; above 10 µM in test [6]; above 10 µM at Histamine H3 receptor; above 30 µM on Adenosine receptor A3; above 30 µM in test [3]; above 10 µM in test [4]. The AC50 in test [5] was above 30 µM.

In the case of `CC(CCc1ccccc1)NCC(O)c1ccc(O)c(C(N)=O)c1` (stereo not drawn) [LABETALOL], the AC50 at Adenosine receptor A3 is above 30 µM.

As to `C[N+](C)(C)C[C@H](O)CC(=O)[O-]` [LEVOCARNITINE], the concentration at half-maximal activity (AC50) on Adenosine receptor A3 is above 30 µM.

With `CC(=O)O[C@]1(C(C)=O)CC[C@H]2[C@@H]3C=C(C)C4=CC(=O)CC[C@@H]4[C@H]3CC[C@@]21C` [NOMEGESTROL ACETATE], the AC50 is above 30 µM in test [1], above 10 µM in test [2], above 30 µM in test [4] and 14 µM in test [5].

Take `CO[C@H]1/C=C/O[C@@]2(C)Oc3c(C)c(O)c4c(O)c(c(/C=N/N5CCN(C)CC5)c(O)c4c3C2=O)NC(=O)/C(C)=C\C=C\[C@H](C)[C@H](O)[C@@H](C)[C@@H](O)[C@@H](C)[C@H](OC(C)=O)[C@@H]1C` [RIFAMPIN]: the half-maximal activity concentration (AC50) in test [1] is above 30 µM; in test [6], above 10 µM; at Histamine H3 receptor it was 25 µM; in test [3] it was 17.1 µM; in test [4] it was above 30 µM; in test [5], 13 µM.

On to `CC(C)c1nc(N(C)S(C)(=O)=O)nc(-c2ccc(F)cc2)c1/C=C/[C@@H](O)C[C@@H](O)CC(=O)O` [ROSUVASTATIN], for which the half-maximal activity concentration (AC50) in test [1] is above 30 µM; in test [6], above 30 µM; at Histamine H3 receptor, above 30 µM; in test [3], above 30 µM; in test [4], above 30 µM; in test [5], 4.16 µM.

As to `N[C@@H](CC(=O)N1CCn2c(nnc2C(F)(F)F)C1)Cc1cc(F)c(F)cc1F` [SITAGLIPTIN], the AC50 (in test [1]; in test [6]; on Histamine H3 receptor; in test [3]; in test [4]; in test [5]) was above 30 µM in each case.

As for `OC[C@H]1O[C@@](CO)(O[C@H]2O[C@H](CO)[C@@H](O)[C@H](O)[C@H]2O)[C@@H](O)[C@@H]1O` [SUCROSE], the AC50 (in test [1]; in test [6]; at Histamine H3 receptor; in test [3]; in test [4]; in test [5]) was above 30 µM each time.

`Nc1ccc(S(=O)(=O)Nc2nccs2)cc1` [SULFATHIAZOLE]: the AC50 in test [1] is above 10 µM; in test [6], above 10 µM; on Histamine H3 receptor it was above 10 µM; in test [3], above 30 µM; in test [4], above 10 µM; in test [5], above 30 µM.

Consider `C=CC[C@@H]1/C=C(\C)C[C@H](C)C[C@H](OC)[C@H]2O[C@@](O)(C(=O)C(=O)N3CCCC[C@H]3C(=O)O[C@H](/C(C)=C/[C@@H]3CC[C@@H](O)[C@H](OC)C3)[C@H](C)[C@@H](O)CC1=O)[C@H](C)C[C@@H]2OC` [TACROLIMUS ANHYDROUS], for which the AC50 in test [1] is above 10 µM; in test [6], above 30 µM; at Histamine H3 receptor, above 30 µM; in test [3], above 30 µM; in test [4] it was 23 µM and 20 µM; in test [5], above 30 µM.

On Adenosine receptor A3, `C[C@]1(Cn2ccnn2)[C@H](C(=O)O)N2C(=O)C[C@H]2S1(=O)=O` [TAZOBACTAM] showed an AC50 above 30 µM.

Consider `COc1cc2nc(N3CCN(C(=O)C4CCCO4)CC3)nc(N)c2cc1OC` (stereo not drawn) [TERAZOSIN], for which the concentration at half-maximal activity (AC50) was above 30 µM in test [1]; above 10 µM in test [6]; above 10 µM on Histamine H3 receptor; above 30 µM in test [3]; above 10 µM in test [4]; above 30 µM in test [5].

Turning to `CC(S)C(=O)NCC(=O)O` (stereo not drawn) [TIOPRONIN], the AC50 (in test [1]; in test [6]; at Histamine H3 receptor; in test [3]; in test [4]; in test [5]) was above 30 µM throughout.

Regarding `CC1=C(/C=C/C(C)=C/C=C/C(C)=C/C(=O)O)C(C)(C)CCC1` [TRETINOIN], the activity on Adenosine receptor A3 was half-maximal at 8.21 µM (AC50).

In the case of `C[C@H](CCC(=O)O)[C@H]1CC[C@H]2[C@@H]3[C@@H](O)C[C@@H]4C[C@H](O)CC[C@]4(C)[C@H]3CC[C@]12C` [URSODIOL], the half-maximal activity concentration (AC50) (in test [1]; in test [6]; on Histamine H3 receptor; in test [3]; in test [4]; in test [5]) was above 30 µM each time.

As for `Cc1onc(-c2ccccc2)c1-c1ccc(S(N)(=O)=O)cc1` [VALDECOXIB], the AC50 was above 10 µM in test [1]; above 10 µM in test [6]; above 30 µM at Histamine H3 receptor; 23.8 µM on Adenosine receptor A3; above 30 µM in test [3]; above 10 µM in test [4]. For the same compound, the AC50 in test [5] is above 10 µM.

As for `CCCC(CCC)C(=O)O` [VALPROIC ACID], the half-maximal activity concentration (AC50) was above 10 µM in test [1]; above 10 µM in test [6]; above 10 µM on Histamine H3 receptor; above 30 µM in test [3]; above 10 µM in test [4]; above 30 µM in test [5].

By AC50 is commonly meant the midpoint of the concentration-response curve, whichever way the signal moves. A higher AC50 goes with weaker potency.
